Results on two compounds are retold here after US20150164064A1, “METHODS, COMPOSITIONS AND DEVICES FOR INDUCING STASIS IN CELLS, TISSUES, ORGANS, AND ORGANISMS” (Fred Hutchinson Cancer Research Center, priority 2003, published 2015).

Entries after “also recorded” stand apart in the source; their conditions may differ. Read-outs that look alike come from different tables or passages of the source.

One series deals with hif-1(ia04) embryos. Nature of the series: Viability and suspended animation of nematodes in carbon monoxide based atmospheres (hif-1 mutant). Format: in vivo, C. elegans. The text has this:
Viability of nematodes in carbon monoxide based atmospheres. 30-60 embryos were harvested from continuously maintained Bristol N2 and […] strains as described above. Environmental chambers were continuously perfused at room temperature with pure CO (grade CP) or 500 ppm O2/CO at 70 cc/min for 24 hrs. To achieve 2500 ppm O2/CO or 2500 ppm O2/N2, 5000 ppm O2/N2 was mixed at a 1:1 ratio with either pure CO or pure N2 using two mass flow controllers (Sierra Instruments 810) to precisely monitor flow. Each gas was delivered into a 3-way valve (Cole-Parmer #A-30600-23) at 50 cc/min and the resulting mixture was then passed through a gas washing bottle and into an environmental chamber throughout the 24 hour exposure. All gases were supplied by Byrne Gas (Seattle, Wash.). The 500 ppm O2/CO mixture was certified to ±2% of the oxygen content and contained […] to ensure a consistent O2/CO ratio throughout the use of the tank.
Cell biological analysis. To determine the extent of developmental progression in nitrogen-based atmospheres (Table 2), 2-cell embryos were exposed to various degrees of hypoxia as described above and were either immediately photographed, or photographed following a […] recovery period in a humid chamber. […]

The subject of a further series is human keratinocytes. In words: Preservation of human skin in carbon monoxide; keratinocyte growth and colony formation. Format: cell-based. As for the experimental part:
Three human foreskins were obtained for this purpose. The foreskin tissue was preserved in keratinocyte growth medium (KGM) containing insulin, EGF (0.1 ng/ml), hydrocortisone ([…]) and bovine pituitary extract (approx. 50 micrograms/ml of protein). Foreskins were rinsed in PBS, and excess fatty tissue was removed. Each foreskin sample was divided into 2 equal pieces. Each piece was placed into a separate container containing a solution of PBS with 24 mg/ml of Dispase II (from Bacillus Polmyxa EC 3.4.24.4:Roche Diagnostics Corp., Indianapolis, Ind.). One container (containing a foreskin piece in PBS with Dispase II) was kept in a humid chamber in a fume hood. The other container (with the other half of the foreskin in PBS with Dispase II) was placed in the same fume hood in an environmental chamber perfused with humidified 100% CO. Both samples were maintained at room temperature for 24 hrs. Methods used to establish defined atmospheric conditions were identical to those used in Example 1. […]
Cells were inspected visually using an inverted phase contrast microscope. […] Quantitation of the number of viable keratinocytes as judged by colony formation was quantified for two of the three foreskins.

Series [1] deals with wild-type C. elegans embryos (Bristol N2). In words: Viability and suspended animation of nematodes in carbon monoxide based atmospheres (wild-type). It is filed as in vivo. An excerpt: To achieve specific atmospheric conditions the following apparatus was used: a glass syringe barrel having a tip with a locking device such as a LUER-LOK with the large opening of the barrel sealed with a custom-machined steel and rubber fitting to make an airtight seal was locked to via locking device to the inlet port of an environmental chamber having an inlet and an outlet port each fitted with a locking devices such as a LUER-LOK fitting. A defined gas was humidified and provided to the environmental chamber by first venting the gas from a compressed tank (Byrne Specialty Gas, Seattle, Wash.) through a gas washing bottle (500 ml Kimex) filled with double distilled water. The gas washing bottle was connected to the environmental chamber past a gas-flow meter. A gas flow meter was used to provide a regulated 70 cc/min flow through the environmental chamber throughout the 24 hr incubation.
To test whether induced, reversible stasis could be achieved in C. elegans nematodes, 2-cell C. elegans embryos, L3 larvae or adult nematodes were collected and exposed to either an environment of effectively 100% CO, an environment of 100% N2, an environment comprising 500 ppm oxygen balanced with carbon monoxide, or to environments comprising 100, 500 or 1000 ppm oxygen balanced with nitrogen at room temperature. Nematodes were visualized using differential interference contrast microscopy (also known as Nomarski optics), images were collected and analyzed using NIH image and Adobe Photoshop 5.5. Embryos are approximately 50 μm in length.
Enviromental chambers and apparati. Oxygen deprivation experiments were carried out using a custom atmospheric chamber designed by W. Van Voorhies (Van Voorhies et al., 2000). The chamber is a 30 mL glass syringe (Fisher #14-825-10B) fitted with a custom steel stopper that is lined with two viton o-rings to ensure a tight seal. The stopper is bored through and has a steel lure lock on the exterior face so that a hose carrying compressed gas can be attached. A defined gas mixture is delivered to the chamber at a constant pressure and flow rate from compressed tanks by passing first through a rotometer (Aalborg, flow-tube number 032-41ST) or mass flow controller (Sierra Instruments #810) to monitor flow rate and then through a 500 ml gas washing bottle (Fisher #K28220-5001) containing 250 ml water to hydrate the gas. ¼″ OD nylon (Cole-Parmer #P-06489-06) or FEP (Cole-Parmer #A-06450-05) tubing was used and connections between tubing and the regulators and between the tubing and the rotometers were made with brass John-Guest-type fittings (Byrne Gas). All other connections were made with either microflow quick-connect fittings (Cole-Parmer #A-06363-57, #A-06363-52) or standard lure fittings (Cole-Parmer #A-06359-37, #A-06359-17).
Viability of nematodes in hypoxia. […] Log-phase, adult C. elegans were picked into a drop of sterile water containing 100 μg/ml ampicillin, 15 μg/ml tetracycline and 200 μg/ml streptomycin on a glass plate. Adults were chopped with a razor blade and 2-cell embryos were picked using a mouth pipet. 30-60 2-cell embryos were transferred to a small glass boat (custom made to fit atmospheric chambers, Avalon Glass Works, Seattle Wash.) filled with 3 ml of 1% agarose in M9. […] Embryos were scored for hatching 24 hours after exposure and hatched L1's were transferred to the surface of the NGM plate and followed to adulthood. […]

Series [2] concerns humans. As to conditions: cited from earlier work.
The test system of series [3] is mice. Nature of the series: Core body temperature, heart rate and movement of mice by telemetry in regulated H2S atmosphere. It is filed as in vivo, mouse. The note with it: 80 ppm. An excerpt:
Implantation of telemetry devices.
Exposure of Mice to Regulated Atmosphere.
Regulation of Ambient Temperature. […] Mice were exposed to regulated atmosphere as described above.

Series [4] concerns mice.
The test system of another series is rats. As to conditions: cited from earlier work.
Series [5] deals with mice. The note with it: 80 ppm, cited from earlier work.
Series [6] concerns humans. As to conditions: 500 ppm; cited from earlier work.

As for `[C-]#[O+]` [CO, carbon monoxide], the “viability (survival) to adulthood” value with hif-1(ia04) embryos (0.25 kPa O2/CO, 24 hrs, hif-1(ia04) embryos) came out at 84.0%. Further, the suspended animation result in the series with hif-1(ia04) embryos (0.25 kPa O2 balanced with carbon monoxide, hif-1(ia04)) was “entered into suspended animation”; in series [1] (0.25 kPa O2 balanced with carbon monoxide, wild-type), “entered into suspended animation”; in [1] (100% CO (101 kPa CO), 24 hrs), “entered into suspended animation”; in series [1] (100% CO (101 kPa CO), 24 hrs, listed as carbon monoxide) it was “induced reversible suspended animation”. For the same compound, the “keratinocyte growth (visual inspection)” value in the series on human keratinocytes (all three populations, 100% CO 24 hr) is “significant growth”. Further, the “cell survival in CO relative to room air” value in the series on human keratinocytes (human skin, 100% CO, after 24 hrs) is on record as 100 fold. Besides, the lethality to nematodes entry in [1] (100% CO, 24 hr, room temperature) is on record as “not lethal”. For the same compound, the “suspended animation and survival” value in series [1] (500 ppm oxygen (0.05 kPa O2) balanced with carbon monoxide, 24 hrs) is “entered into suspended animation and survived; also recorded: arrested embryogenesis”. Besides, the symptoms in humans entry is “no symptoms” with humans [2] (50 ppm); “slight headache” with humans [2] (200 ppm, within two-three hours); “frontal headache” in the series on humans [2] (400 ppm, within one to two hours); “dizziness, nausea, and/or convulsions” with humans [2] (800 ppm, within 45 minutes); “insensible” with humans [2] (800 ppm, within two hours). Moreover, the lethality result in the series on humans [2] (around 1000 ppm, exposure more than around 1-2 minutes) was “can expire”.
Take `S` [H2S, hydrogen sulfide]: in the series with mice [3], the “core body temperature repeatedly reached on demand” value was 13-15 °C. Further, the “behavior compared to untreated animals” value with mice [4] (after 80 ppm, cabinet 10.5°C) is “no apparent change in the behavior”. For the same compound, the “behavior tests (SHIRPA protocol) before and after exposure” value in the series on mice [4] (after gas exposure) was “no detectable behavioral differences”. For the same compound, the “behavior of the animals” value in the series on mice [4] (four mice maintained for 4 weeks after 80 ppm, 6 hr, 15°C) was “no apparent change in the behavior”. Also, in the series on rats (20 or 50 ppm, 7 hours per day, gestation through post-natal day 21), the “perinatal exposure effect on cerebellar Purkinje cells” value is on record as “longer dendritic branches with reduced aborization of cerebellar Purkinje cells”. In the series on rats (80 ppm), the “perinatal study, neuropathology and behavior of rat pups” value is recorded as “no neuropathological effects or altered motor activity, passive avoidance, or acoustic startle response”. For the same compound, the “behavioral toxicity, avoidance responses” value in the series with rats (moderate levels, immediately after end of exposure) is “inhibits discriminated avoidance responses”. The “behavioral toxicity, maze learning” value in the series on rats (moderate levels) is listed as “interferes with the ability of rats to learn a baited radial arm maze task”. The “toxicology, gross and histopathological examination” value is “no observed adverse effect” with rats (rats, 80 ppm, 6 hrs per day, 5 days per week, 90 days) and “no observed adverse effect” in the series with mice [5] (mice, 6 hrs per day, 5 days per week, 90 days). In the series with mice [5] (exposures up to ten weeks), the tolerability entry is “innocuous”. In addition, the “acute effect of extreme levels” value in the series with humans [6] is “sudden collapse and unconsciousness”.
